Laboratory results taken from patent US20250034171A1, “IMIDAZOPYRIDINE AMIDES AND RELATED COMPOUNDS FOR USE IN THE TREATMENT OF BACTERIAL INFECTIONS” (priority 2021, published 2025).
Values after ≈ are worked out from the molar mass of the structure shown. Like-named read-outs stand apart in the source and are kept apart here.

Tests used:
[1] = system: Mycobacterium tuberculosis strain H37Rv; assay: Test 2: MIC determination against M. tuberculosis, resazurin fluorescence; format: cell-based; conditions: Test 2, M. tuberculosis H37Rv; for MIC90: read-out: Bacterial activity MIC90; for IC50: read-out: Bacterial activity pMIC50 (converted)
[2] = Metabolic stability in liver microsomes (intrinsic clearance); format: in vitro ADME; conditions: microsomes
Method: The test compound was incubated under the generic condition (0.5 mg/ml microsomal protein, 1 mM NADPH, 1 mM MgCl2, and 0.1 M phosphate buffer, pH 7.4, 37° C.) at a defined substrate concentration (typically 1 μM) in liver microsomes of selected species across a time course (typically 0, 5, 10, 20, 40 and 60 minutes) at Cyprotex (Cheshire, UK). The liver microsomes, buffer and test compound will be pre-incubated for 5 minutes. The addition of the co-factor NADPH will initiate the reaction and the reaction was terminated by addition of acetonitrile. The samples were centrifuged prior to analysis by LC-MS/MS analysis. The relative amount of parent compound remaining in the active incubations vs. the control incubations (t=0 mins) for each compound was measured by peak area comparison. The in vitro metabolic half-life (t1/2) was calculated using the slope of the log-linear regression from the percentage parent compound remaining versus time relationship (κ), The in vitro intrinsic clearance (Cl^int) (μl/min/mg microsomal protein) was calculated using the in vitro metabolic half-life, incubation volume and the weight of microsomal protein in the incubation.

[3] = system: Salmonella typhimurium Ames II Mixed Strains (TA7001-TA7006) and TA98; assay: Genotoxicity assay (AmesIIb mutagenicity test); format: cell-based; note: key: an AmesIIb score of 1 shows no genotoxicity signals
Description: The aim is to evaluate compounds (and/or their metabolites) for their ability to induce reverse mutations in a gene of histidine-requiring Salmonella typhimurium strains to produce histidine-independent strains of these bacteria, in the absence and in the presence of a mammalian metabolic activation system.
Point mutations were made in the histidine (His) operon in Salmonella typhimurium, rendering the bacteria incapable of producing histidine. These single base substitutions are positioned at strategic points within the His gene, resulting in his-organisms that cannot grow unless histidine is supplied. When a mutagenic event occurs, base substitutions within the His gene then cause the reversion of the his-Ames II™ strains to His.
A chemical's mutagenic potential is assessed by exposing these his-organisms to varying concentrations of chemical and selecting for the reversion event. Medium lacking histidine is used for this selection which allows only those cells that have undergone the his- to His reversion to survive and grow.
The assay may be performed using a kit and instructions from Xenometric. The two strains provided in the Xenometric kit are the Ames II™ Mixed Strains and TA98. The Ames II™ Mixed Strains contains an equimolar mixture of the Ames II™ TA7001-TA7006 strains. Individually, these strains are designed to revert by only one specific base-pair substitution out of six possible changes. Thus, when mixed, all six base substitution mutations can be represented in one culture. This kit also contains TA98 for the detection of frameshift mutations.

[4] = Mycobacterium tuberculosis, H37RV
[5] = mouse, pH 7.4, Metabolic Stability Half life (mouse, min.)
[6] = mouse, pH 7.4, mouse liver microsomes, read-out: Metabolic Stability (liver microsome intrinsic clearance) Clearance (mouse, μl/min./mg protein)
[7] = human, pH 7.4, Metabolic Stability Half life (human, min.)
[8] = human, pH 7.4, human liver microsomes, read-out: Metabolic Stability (liver microsome intrinsic clearance) Clearance (human, μl/min./mg protein)

CCc1nc2nc(C)ccn2c1C(=O)NCc1ccc(-c2nc3n(n2)CCC(C(F)(F)F)C3)cc1 (centres unmarked) [Compound 5b]
Bacterial activity pMIC50 [1]: 7.873
MIC90 [1]: 0.044 µM (≈ 0.0213 µg/mL)
Metabolic Stability (liver microsome intrinsic clearance) Clearance (mouse, μl/min./mg protein) ([2]; mouse): <7.7 μl/min./mg protein
Metabolic Stability Half life (mouse, min.) ([2]; mouse): >3 h
GeneTox AmesIIb Score [3]: 1

CCc1nc2ncc(C)cn2c1C(=O)NCc1ccc(-c2nc3n(n2)CCC(C(F)(F)F)C3)c(C)n1 (centres unmarked) [Compound 37]
MIC90 [1, 4]: 0.0035 µM (≈ 0.00174 µg/mL)
IC50 [1, 4]: 12600 pM
half-life at 1 µM [2, 5]: > 2.8 h
microsomal CLint at 1 µM [2, 6]: < 7.7 µL/min/mg
GeneTox AmesIIb Score ([3]; Salmonella typhimurium): 1

CCc1nc2ncc(C)cn2c1C(=O)NCc1cc(C)c(-c2nc3n(n2)CCC(C(F)(F)F)C3)cn1 (centres unmarked) [Compound 38]
MIC90 [1, 4]: 0.052 µM (≈ 0.0259 µg/mL)
IC50 [1, 4]: 17000 pM
half-life at 1 µM [2, 5]: > 3 h
microsomal CLint at 1 µM [2, 6]: < 7.7 µL/min/mg
GeneTox AmesIIb Score ([3]; Salmonella typhimurium): 1

CCc1nc2ncc(C)cn2c1C(=O)NCc1ccc(-c2nc3n(n2)CCC(C(F)(F)F)C3)cn1 (centres unmarked) [Compound 39]
MIC90 [1, 4]: 0.16 µM (≈ 0.0775 µg/mL)
IC50 [1, 4]: 49000 pM
half-life at 1 µM [2, 5]: > 3 h
microsomal CLint at 1 µM [2, 6]: < 7.7 µL/min/mg
GeneTox AmesIIb Score ([3]; Salmonella typhimurium): 1

CCc1nc2ccc(F)cn2c1C(=O)NCc1ccc(-c2nc3n(n2)CC[C@H](C(F)(F)F)C3)cc1 [Compound 50]
MIC90 [1, 4]: 0.11 µM (≈ 0.0535 µg/mL)
IC50 [1, 4]: 28200 pM
half-life at 1 µM [2, 5]: 1.97 h
microsomal CLint at 1 µM [2, 6]: 11.7 µL/min/mg
GeneTox AmesIIb Score ([3]; Salmonella typhimurium): 1

[2H]C([2H])([2H])c1cnc2nc(CC)c(C(=O)NCc3ccc(-c4nc5n(n4)CC[C@H](C(F)(F)F)C5)cc3)n2c1 [Compound 51]
MIC90 [1, 4]: 0.008 µM (≈ 0.00389 µg/mL)
IC50 [1, 4]: 3160 pM
half-life at 1 µM [2, 5]: > 3 h
microsomal CLint at 1 µM [2, 6]: < 7.7 µL/min/mg
GeneTox AmesIIb Score ([3]; Salmonella typhimurium): 1

CCc1cnc2nc(CC)c(C(=O)NCc3ccc(-c4nc5n(n4)CC[C@@H](C(F)(F)F)C5)cc3)n2c1 [Compound 59]
MIC90 [1, 4]: 0.061 µM (≈ 0.0303 µg/mL)
IC50 [1, 4]: 17800 pM
half-life at 1 µM [2, 7]: 0.0667 h
microsomal CLint at 1 µM [2, 8]: 347 µL/min/mg
half-life at 1 µM [2, 5]: 0.39 h
microsomal CLint at 1 µM [2, 6]: 59.4 µL/min/mg
GeneTox AmesIIb Score ([3]; Salmonella typhimurium): 1

CCc1cnc2nc(CC)c(C(=O)NCc3ccc(-c4nc5n(n4)CC[C@H](C(F)(F)F)C5)cc3)n2c1 [Compound 62]
MIC90 [1, 4]: 0.033 µM (≈ 0.0164 µg/mL)
IC50 [1, 4]: 11000 pM
half-life at 1 µM [2, 7]: 0.0783 h
microsomal CLint at 1 µM [2, 8]: 294 µL/min/mg
half-life at 1 µM [2, 5]: 0.4 h
microsomal CLint at 1 µM [2, 6]: 57.8 µL/min/mg
GeneTox AmesIIb Score ([3]; Salmonella typhimurium): 1

CCc1nc2ncc(C)cn2c1C(=O)NCc1ccc(-c2cn3c(n2)CC(C)CC3)cc1 (centres unmarked) [Compound 89]
MIC90 [1, 4]: 0.046 µM (≈ 0.0197 µg/mL)
IC50 [1, 4]: 14100 pM
half-life at 1 µM [2, 5]: > 3 h
microsomal CLint at 1 µM [2, 6]: < 7.7 µL/min/mg
GeneTox AmesIIb Score ([3]; Salmonella typhimurium): 1

CCc1nc2nc(C)ccn2c1C(=O)NCc1ccc(-c2cn3c(n2)CC(C)CC3)cc1 (centres unmarked) [Compound 91]
MIC90 [1, 4]: 0.48 µM (≈ 0.206 µg/mL)
IC50 [1, 4]: 191000 pM
half-life at 1 µM [2, 5]: > 3 h
microsomal CLint at 1 µM [2, 6]: < 7.7 µL/min/mg
GeneTox AmesIIb Score ([3]; Salmonella typhimurium): 1

CCc1nc2ncc(C)cn2c1C(=O)NCc1ccc(-c2cc3n(n2)CCCC3)cc1 [Compound 95]
MIC90 [1, 4]: 0.011 µM (≈ 0.00456 µg/mL)
IC50 [1, 4]: 3630 pM
half-life at 1 µM [2, 7]: > 9.33 h
microsomal CLint at 1 µM [2, 8]: < 1.2 µL/min/mg
half-life at 1 µM [2, 5]: 0.978 h
microsomal CLint at 1 µM [2, 6]: 0.012 µL/min/mg
GeneTox AmesIIb Score ([3]; Salmonella typhimurium): 1

CCc1nc2ncc(C)cn2c1C(=O)NCc1ccc(-c2nc3n(n2)CCC(COC)C3)cc1 (centres unmarked) [Compound 102]
MIC90 [1, 4]: 0.058 µM (≈ 0.0267 µg/mL)
IC50 [1, 4]: 25700 pM
half-life at 1 µM [2, 5]: > 3 h
microsomal CLint at 1 µM [2, 6]: < 7.7 µL/min/mg
GeneTox AmesIIb Score ([3]; Salmonella typhimurium): 1

CCc1nc2ncc(C)cn2c1C(=O)NCc1ccc(-c2nc3n(n2)CCC(C(C)(F)F)C3)c(F)c1 (centres unmarked) [Compound 106]
MIC90 [1, 4]: 0.03 µM (≈ 0.0149 µg/mL)
IC50 [1, 4]: 12000 pM
half-life at 1 µM [2, 5]: 1.92 h
microsomal CLint at 1 µM [2, 6]: 12.1 µL/min/mg
GeneTox AmesIIb Score ([3]; Salmonella typhimurium): 1

CCc1nc2cc(F)ccn2c1C(=O)NCc1ccc(-c2nc3n(n2)CCCC3)cc1 [Compound 120]
MIC90 [1, 4]: 0.042 µM (≈ 0.0176 µg/mL)
IC50 [1, 4]: 14500 pM
half-life at 1 µM [2, 5]: 1.61 h
microsomal CLint at 1 µM [2, 6]: 14.4 µL/min/mg
GeneTox AmesIIb Score ([3]; Salmonella typhimurium): 1

CCc1nc2ncc(C)cn2c1C(=O)NCc1ccc(-c2nc3n(n2)CCC(C)(C)C3)cc1 [Compound 144]
MIC90 [1, 4]: 0.05 µM (≈ 0.0222 µg/mL)
IC50 [1, 4]: 12600 pM
half-life at 1 µM [2, 5]: > 3 h
microsomal CLint at 1 µM [2, 6]: < 7.7 µL/min/mg
GeneTox AmesIIb Score ([3]; Salmonella typhimurium): 1

CCc1cnc2nc(CC)c(C(=O)NCc3ccc(-c4cn5c(n4)C[C@H](C(F)(F)F)CC5)cc3)n2c1 [Compound 151]
MIC90 [1, 4]: 0.054 µM (≈ 0.0268 µg/mL)
IC50 [1, 4]: 18200 pM
half-life at 1 µM [2, 7]: 0.0717 h
microsomal CLint at 1 µM [2, 8]: 326 µL/min/mg
half-life at 1 µM [2, 5]: 0.37 h
microsomal CLint at 1 µM [2, 6]: 62.5 µL/min/mg
GeneTox AmesIIb Score ([3]; Salmonella typhimurium): 1

CCc1cnc2nc(CC)c(C(=O)NCc3ccc(-c4cn5c(n4)C[C@@H](C(F)(F)F)CC5)cc3)n2c1 [Compound 152]
MIC90 [1, 4]: 0.088 µM (≈ 0.0437 µg/mL)
IC50 [1, 4]: 23400 pM
half-life at 1 µM [2, 7]: < 0.0667 h
microsomal CLint at 1 µM [2, 8]: > 347 µL/min/mg
half-life at 1 µM [2, 5]: 0.178 h
microsomal CLint at 1 µM [2, 6]: 129 µL/min/mg
GeneTox AmesIIb Score ([3]; Salmonella typhimurium): 1

CCc1nc2n(c1C(=O)NCc1ccc(-c3cc4n(n3)CCC(C(F)(F)F)C4)cc1)CCCC2 (centres unmarked) [Compound 179]
MIC90 [1, 4]: 0.0097 µM (≈ 0.00457 µg/mL)
IC50 [1, 4]: 3310 pM
half-life at 1 µM [2, 5]: 0.432 h
microsomal CLint at 1 µM [2, 6]: 53.5 µL/min/mg
GeneTox AmesIIb Score ([3]; Salmonella typhimurium): 1

CCc1nc2ncccn2c1C(=O)NCc1ccc(-c2nc3n(n2)CC[C@@H](C2CC2)C3)cc1 [Compound 183]
MIC90 [1, 4]: 0.48 µM (≈ 0.212 µg/mL)
IC50 [1, 4]: 646000 pM
half-life at 1 µM [2, 5]: 2.28 h
microsomal CLint at 1 µM [2, 6]: 10.1 µL/min/mg
GeneTox AmesIIb Score ([3]; Salmonella typhimurium): 1

CCc1nc2ncccn2c1C(=O)NCc1ccc(-c2nc3n(n2)CC[C@H](C2CC2)C3)cc1 [Compound 184]
MIC90 [1, 4]: 0.43 µM (≈ 0.19 µg/mL)
IC50 [1, 4]: 166000 pM
half-life at 1 µM [2, 5]: > 3 h
microsomal CLint at 1 µM [2, 6]: < 7.7 µL/min/mg
GeneTox AmesIIb Score ([3]; Salmonella typhimurium): 1
